Results on 15 compounds are retold here after US20250136594A1 (Tango Therapeutics, Inc., priority 2022, published 2025).

Where two headings read alike, the source gives them in different places.

Test [1] concerns HAP1 MTAP-deleted cell line. The test can be described thus: Viability assay, HAP1 MTAP-deleted cell line. The class given is cell-based. Conditions: Homo sapiens.
Test [2] has as its system SDMA in HAP1 MTAP-intact cell line (PRMT5 inhibition). The test can be described thus: SDMA in-cell western assay, HAP1 MTAP-intact cell line. Particulars: Homo sapiens, HAP1, read-out: Hap1 MTAP intact IC50.
Test [3] has as its system SDMA in HAP1 MTAP-deleted (MTAP-null) cell line (PRMT5 inhibition). The test can be described thus: SDMA in-cell western assay, HAP1 MTAP-deleted cell line. Particulars: for IC50 / IC90: Homo sapiens; for IC50: HAP1, read-out: Hap1 MTAP deleted IC50; for IC90: HAP1, read-out: Hap1 MTAP deleted IC90; for Hap1 MTAP intact/deleted ratio: ratio of SDMA IC50 in HAP1 MTAP-intact to HAP1 MTAP-deleted cell line.

Where [4] appears, read: viability assay, HAP1 MTAP-deleted cell line, read-out: Hap1 MTAP deleted viability IC50.

With `CC(C)CN(Cc1ccccc1)C(=O)C(=O)Nc1cnc(N)c2cn[nH]c12` [Compound 101, N-(4-amino-1H-pyrazolo[4,3-c]pyridin-7-yl)-N′-benzyl-N′-isobutyl-oxamide], the IC50 in test [1] (setting [4]) is < 0.1 µM; in test [2], > 0.05 µM; in test [3] it was < 0.005 µM. For the same compound, the IC90 in test [3] is 0.075 to 0.125 µM. Besides, the “Hap1 MTAP intact/deleted ratio” value in test [3] is given as “A (IC50 ratio greater than or equal to 30 fold)”.
In the case of `Nc1ncc(NC(=O)C(=O)N(Cc2ccccn2)Cc2ccccn2)c2[nH]ncc12` [Compound 89, N-(4-amino-1H-pyrazolo[4,3-c]pyridin-7-yl)-N′,N′-bis(2-pyridylmethyl)oxamide], the IC50 in test [1] (setting [4]) is < 0.1 µM. Moreover, in test [2], the half-inhibitory concentration (IC50) is > 0.05 µM. Further, in test [3], the IC50 is < 0.005 µM, the IC90 is < 0.075 µM and the “Hap1 MTAP intact/deleted ratio” value was “A (IC50 ratio greater than or equal to 30 fold)”.
For `Cc1cc(F)cnc1CN(Cc1ccccc1)C(=O)C(=O)Nc1cnc(N)c2cn[nH]c12` [Compound 116, N-(4-amino-2H-pyrazolo[4,3-c]pyridin-7-yl)-N′-benzyl-N′-[(5-fluoro-3-methyl-2-pyridyl)methyl]oxamide] the same measures were < 0.1 µM, 0.005 to 0.05 µM, < 0.005 µM, < 0.075 µM and “B (IC50 ratio greater than or equal to 15 fold but lower than 30 fold)”.
As to `Nc1ncc(NC(=O)C(=O)N(Cc2ccc(C(F)(F)F)cn2)[C@@H]2CCC[C@H]2OC(F)F)c2[nH]ncc12` [Compound 43, N1-(4-amino-1H-pyrazolo[4,3-c]pyridin-7-yl)-N^2-((1R,2R)-2-(difluoromethoxy)cyclopentyl)-N^2-((5-(trifluoromethyl)pyridin-2-yl)methyl)oxalamide], the IC50 in test [1] (setting [4]) was < 0.1 µM. For the same compound, the IC50 in test [2] is 0.005 to 0.05 µM. In test [3], the IC50 is < 0.005 µM, the 90% effect concentration (IC90) was < 0.075 µM and the “Hap1 MTAP intact/deleted ratio” value is “C (IC50 ratio of less than 15 fold)”.
On to `CC(C)CN(C(=O)C(=O)Nc1cnc(N)c2cn[nH]c12)[C@@H](C)c1ccccc1` [Compound 165, (S)—N^1-(4-amino-1H-pyrazolo[4,3-c]pyridin-7-yl)-N^2-isobutyl-N^2-(1-phenylethyl)oxalamide], for which the IC50 was < 0.1 µM in test [1] (setting [4]), > 0.05 µM in test [2] and 0.005 to 0.05 µM in test [3]. Further, the IC90 in test [3] lay in the range of 0.075 to 0.125 µM. Moreover, the “Hap1 MTAP intact/deleted ratio” value in test [3] is given as “A (IC50 ratio greater than or equal to 30 fold)”.
`C[C@@H](c1ccc(C(F)(F)C(F)(F)F)cc1)N(C)C(=O)C(=O)Nc1cnc(N)c2cn[nH]c12` [Compound 131, N-(4-amino-1H-pyrazolo[4,3-c]pyridin-7-yl)-N′-methyl-N′—[(1S)-1-[4-(1,1,2,2,2-pentafluoroethyl)phenyl]ethyl]oxamide]: the results for the IC50 in test [1] (setting [4]), in test [2] and in test [3] were < 0.1 µM, > 0.05 µM and 0.005 to 0.05 µM, respectively. Besides, the IC90 in test [3] was > 0.125 µM. Also, in test [3], the “Hap1 MTAP intact/deleted ratio” value is reported as “A (IC50 ratio greater than or equal to 30 fold)”.
For `CCN(Cc1nccc2ccccc12)C(=O)C(=O)Nc1cnc(N)c2cn[nH]c12` [Compound 146, N-(4-amino-2H-pyrazolo[4,3-c]pyridin-7-yl)-N′-ethyl-N′-(1-isoquinolylmethyl)oxamide], in test [1] (setting [4]), the IC50 lay in the range of 0.1 to 1 µM. The half-inhibitory concentration (IC50) in test [2] is > 0.05 µM. Moreover, in test [3], the IC50 is < 0.005 µM, the IC90 lay within 0.075 to 0.125 µM and the “Hap1 MTAP intact/deleted ratio” value is recorded as “A (IC50 ratio greater than or equal to 30 fold)”.
Taken in the same sequence, the figures for `C[C@H](c1ccc(C(F)(F)C(F)(F)F)cc1)N(C)C(=O)C(=O)Nc1cnc(N)c2c1cnn2C` [Compound 81, N-(7-Amino-1-methyl-pyrazolo[3,4-c]pyridin-4-yl)-N′-methyl-N′—[(1R)-1-[4-(1,1,2,2,2-pentafluoroethyl)phenyl]ethyl]oxamide] were < 0.1 µM, 0.005 to 0.05 µM, < 0.005 µM, < 0.075 µM and “A (IC50 ratio greater than or equal to 30 fold)”.
Consider `Cc1cccc(CN(Cc2ccccc2)C(=O)C(=O)Nc2cnc(N)c3cn[nH]c23)n1` [Compound 191, N-(4-amino-1H-pyrazolo[4,3-c]pyridin-7-yl)-N′-benzyl-N′-[(6-methyl-2-pyridyl)methyl]oxamide], for which the IC50 in test [1] (setting [4]) is < 0.1 µM; in test [2], 0.005 to 0.05 µM; in test [3], < 0.005 µM. The 90% effect concentration (IC90) in test [3] is < 0.075 µM. In addition, in test [3], the “Hap1 MTAP intact/deleted ratio” value is “A (IC50 ratio greater than or equal to 30 fold)”.
In the case of `COC[C@@H](C1CC1)N(Cc1ccc(C(F)(F)F)cn1)C(=O)C(=O)Nc1cnc(OC)c(C(N)=O)c1` [Compound 37, (R)-N1-(5-carbamoyl-6-methoxypyridin-3-yl)-N^2-(1-cyclopropyl-2-methoxyethyl)-N^2-((5-(trifluoromethyl)pyridin-2-yl)methyl)oxalamide], the IC50 in test [1] (setting [4]) was < 0.1 µM. For the same compound, in test [2], the IC50 was > 0.05 µM. Also, in test [3], the IC50 was in the range of 0.005 to 0.05 µM, the 90% effect concentration (IC90) is < 0.075 µM and the “Hap1 MTAP intact/deleted ratio” value is “B (IC50 ratio greater than or equal to 15 fold but lower than 30 fold)”.
Regarding `Nc1ncc(NC(=O)C(=O)N(Cc2ccc(C(F)(F)F)cn2)C2CC2)c2[nH]ncc12` [Compound 159, N-(4-Amino-1H-pyrazolo[4,3-c]pyridin-7-yl)-N′-cyclopropyl-N′-[[5-(trifluoromethyl)-2-pyridyl]methyl]oxamide], the half-maximal inhibitory concentration (IC50) in test [1] (setting [4]) is < 0.1 µM. Further, the IC50 in test [2] was > 0.05 µM. In addition, in test [3], the IC50 is < 0.005 µM, the IC90 is 0.075 to 0.125 µM and the “Hap1 MTAP intact/deleted ratio” value is recorded as “B (IC50 ratio greater than or equal to 15 fold but lower than 30 fold)”.
Take `Nc1ncc(NC(=O)C(=O)N(Cc2ccccn2)Cc2ccc(F)cc2Cl)c2[nH]ncc12` [Compound 77, N-(4-amino-1H-pyrazolo[4,3-c]pyridin-7-yl)-N′-[(2-chloro-4-fluoro-phenyl)methyl]-N′-(2-pyridylmethyl)oxamide]: the IC50 in test [1] (setting [4]) is < 0.1 µM. Further, the IC50 in test [2] was 0.005 to 0.05 µM. Moreover, in test [3], the IC50 is < 0.005 µM, the IC90 was < 0.075 µM and the “Hap1 MTAP intact/deleted ratio” value is reported as “B (IC50 ratio greater than or equal to 15 fold but lower than 30 fold)”.
`CC(C)CN(Cc1ccc(S(F)(F)(F)(F)F)cc1)C(=O)C(=O)Nc1cnc(N)c2cn[nH]c12` [Compound 110]: the IC50 in test [1] (setting [4]) is < 0.1 µM; in test [2], 0.005 to 0.05 µM; in test [3], < 0.005 µM. Further, in test [3], the IC90 was < 0.075 µM. For the same compound, the “Hap1 MTAP intact/deleted ratio” value in test [3] was “C (IC50 ratio of less than 15 fold)”.
On to `C[C@H](c1ccc(C(F)(F)F)cc1C(F)(F)F)N(C)C(=O)C(=O)Nc1cnc(N)c2cn[nH]c12` [Compound 193, N-(4-Amino-2H-pyrazolo[4,3-c]pyridin-7-yl)-N′-methyl-N′—[(1R)-1-[2,4-bis (trifluoromethyl)phenyl]ethyl]oxamide], for which the IC50 in test [1] (HAP1, read-out: Hap1 MTAP deleted viability IC50) was < 0.1 µM; in test [2], > 0.05 µM; in test [3] it was < 0.005 µM. The IC90 in test [3] was < 0.075 µM.
As to `Nc1ncc(NC(=O)C(=O)N(CCC(F)(F)F)Cc2ccccc2)c2[nH]ncc12` [Compound 102, N-(4-amino-1H-pyrazolo[4,3-c]pyridin-7-yl)-N′-benzyl-N′-(3,3,3-trifluoropropyl)oxamide], the IC50 in test [1] (setting [4]) was 0.1 to 1 µM; in test [2], > 0.05 µM; in test [3], 0.005 to 0.05 µM. Further, the IC90 in test [3] was > 0.125 µM. Further, the “Hap1 MTAP intact/deleted ratio” value in test [3] was “A (IC50 ratio greater than or equal to 30 fold)”.

For orientation: IC50 means the concentration that inhibits the measured activity by half. As usually defined, the IC90 is the point of the concentration-response curve where the effect stands at 90%.
